From patent US20110301125A1, “Method for Treating Macular Degeneration” (SANOFI-AVENTIS, priority 2008, published 2011)
Entries after “also recorded” stand apart in the source; their conditions may differ.

Assays:
[1] = tested on: rat laser induced macular degeneration model (choroidal neovascularization); assay: Example 1: rat laser-induced choroidal neovascularization, histopathology of CNV plaque thickness (first set of study); format: in vivo, Brown Norway rats (Rattus norvegicus)
Excerpt: Fifty male Brown Norway (strain BN/RijHsd) rats (Rattus norvegicus), 4-7 weeks old (50-124 g each), were purchased from Harlan (Indianapolis, Ind.), received in good condition. The animals were quarantined and acclimated for three (3) days. […] 50 animals were arbitrarily assigned to study groups and given permanent identification numbers.
The retinae (both eyes of each rat) were lased using a retinal lasering device with an attached Kowa PortSlit, SC14; Keeler Fison Indirect Ophthalmoscope (Lens 30 Diopter). Rats were briefly anesthetized and the eyes were dilated and coverslips were used as necessary to flatten the cornea. Each retina was lased with 186 mW, 75 μm spot sizes, 0.1 sec duration, applied to (approximately) 9-, 12- and 3-o'clock positions, 2-3 disk diameters from the optic nerve of each eye as feasible as determined by the surgeon. Rupture of the Bruch's membrane was identified by bubble formation, which occurred immediately at the site of photocoagulation. Rats were briefly anesthetized and administered fluoroscein to visualize the retinal vasculature post surgically and prior to necropsy. Representative photographs of the retinas were taken using a Kowa retinal camera for rodents. The photographs were taken to assure that vascular lesions were present immediately following the laser procedure and immediately prior to necropsy.
2-[4-(7-ethyl-5H-pyrrolo[2,3-b]pyrazin-6-yl)-phenyl]-propan-2-ol A and 2-(3-fluoro-phenyl)-4-methyl-pyrimidine-5-carboxylic acid indol-1-ylamide were formulated in vehicle twice weekly during the study. Vehicle consisted of 0.5% methylcellulose, 0.2% Tween 20 in sterile water for injection, and was formulated once weekly. 2-(3-fluoro-phenyl)-4-methyl-pyrimidine-5-carboxylic acid indol-1-ylamide test article was reconstituted in vehicle at 0.6, 2, and 6 mg/mL; 2-(3-fluoro-phenyl)-4-methyl-pyrimidine-5-carboxylic acid indol-1-ylamide control article was reconstituted at 2 mg/mL. All solutions were stored refrigerated at 2-8° C. between dose administrations, and mixed prior to each dose administration.
Animals were dosed via twice daily oral gavage at 5 mL/kg, starting immediately prior to lasing and continuing for 14 days. Dose volumes were recalculated weekly based on the most recent body weight. Note that animals were lased on two sequential days, but were sacrificed together on a single day to facilitate handling during necropsy. Therefore, animals of the first cohort (Groups 1-3) received an extra (29th) dose on the morning of Day 14 to permit terminal bleed and sacrifice within 2-4 hr of final dose administration.
The fundus was photographed on Day 0, at the time of lasing or shortly thereafter, and on Day 13 or 14, prior to sacrifice. At each time point, retinal vasculature was illuminated by intravenous (IV) injection of each animal, several minutes before photography, with 0.1 mL of a 10% solution of fluorescein dye. Each eye was dilated with a mydriatic and photographed with Kowa Small Animal Fundus Camera. The purpose of the fundus photography was to confirm the presence lesions following lasing and prior to necropsy. Any animal found not to have lesions would be removed from study and replaced.
Following fundus photography and terminal bleeds, animals were sacrificed per SOPs. […]
The slides were evaluated visually, qualitatively and semi-quantitatively. The nuclei of new vessels growing on the retinal were counted. […]

[2] = tested on: rat laser-induced macular degeneration model (choroidal neovascularization); assay: Example 5: hPGDS inhibitor, CNV volume by flat-mount fluorescence 3D modeling in rat laser-induced macular degeneration model; format: in vivo, BN rats (Rattus norvegicus; strain Brown Norway); conditions: oral, twice (or once) each day on days -1 to 7; CNV volumes measured on day 7; FIGS. 6A, 6B, 6C
Method: FIG. 6A is a histogram of the results of the effect of the hPDGS inhibitor 2-Pyridin-2-yl-pyrimidine-5-carboxylic acid 3-[5-(1-hydroxy-1-methyl-ethyl)-1,2,4-oxadiazol-3-yl]-benzylamide (“Compound VII” for purposes of this figure) against a laser-induced choroidal neovascularization in the rat: 1st dose-response study. 2-Pyridin-2-yl-pyrimidine-5-carboxylic acid 3-[5-(1-hydroxy-1-methyl-ethyl)-1,2,4-oxadiazol-3-yl]-benzylamide was administered orally twice each day on days −1 to 7. Doxycycline was used as a positive control.
FIG. 6B is a histogram of the results of the effect of the hPDGS inhibitor 2-pyridin-2-yl-pyrimidine-5-carboxylic acid 3-[5-(1-hydroxy-1-methyl-ethyl)-1,2,4-oxadiazol-3-yl]-benzylamide (“Compound VII” for purposes of this figure) against a laser-induced choroidal neovascularization in the rat: 2nd dose-response study. 2-pyridine-2-yl-pyrimidine-5-carboxylic acid 3-[5-(1-hydroxy-1-methyl-ethyl)-1,2,4-oxadiazol-3-yl]-benzylamide was administered orally twice each day on days −1 to 7. CELEBREX was used as a positive control. […]
In this example, the effect of hPGDS antagonist 2-Pyridin-2-yl-pyrimidine-5-carboxylic acid 3-[5-(1-hydroxy-1-methyl-ethyl)-1,2,4-oxadiazol-3-yl]-benzylamide was evaluated using the rat laser-induced macular degeneration model. […] Choroidal neovascular (CNV) volumes were measured on day 7. […]

[3] = tested on: rat laser-induced macular degeneration model (choroidal neovascularization); assay: Example 3: DP antagonist, plaque volume of choroidal neovascularization in rat laser-induced macular degeneration model; format: in vivo, brown Norway rats (Rattus norvegicus); conditions: oral, twice each day on days -1 to 14; CNV volumes measured on day 14; FIG. 4
Excerpt: FIG. 4 is a histogram of the results of an analysis of the effect of DP antagonist 2-(3-{6-[2-(2,4-dichloro-phenyl)-ethylamino]-2-methoxy-pyrimidin-4-yl}-phenyl)-2-methyl-propionic acid phosphoric acid salt (“Compound V” for purposes of this figure) on the plaque volume of choroidal neovascularization in the rat laser-induced macular degeneration model. Indomethacin was used as a positive control.
In this example, the effect of DP antagonist 2-(3-{6-[2-(2,4-dichloro-phenyl)-ethylamino]-2-methoxy-pyrimidin-4-yl}-phenyl)-2-methyl-propionic acid phosphoric acid salt (the compound) on plaque volume of choroidal neovascularization in the rat laser-induced macular degeneration model. As in the Examples discussed above, brown Norway rats (Rattus norvegicus) were used in this example. The rats received laser coagulation on day 0.[…] The compound was then administered orally twice each day on days −1 to 14. Indomethacin (positive control) was similarly administered twice daily. On day 14, the rats were sacrificed and choroidal neovascular (CNV) volumes were measured on day 14.

[4] = tested on: rat laser-induced macular degeneration model (choroidal neovascularization); assay: Example 4: hPGDS inhibitor, plaque volume of choroidal neovascularization in rat laser-induced macular degeneration model; format: in vivo, brown Norway rats; conditions: oral, twice each day on days -1 to 14; measured after fourteen days; FIG. 5
Method: FIG. 5 is a histogram of the results of an analysis of the effect of the hPDGS inhibitor 4-Methyl-2-pyridin-2-yl-pyrimidine-5-carboxylic acid (5-fluoro-3-methyl-indol-1-yl)-amide (“Compound VI” for purposes of this figure) on the plaque volume of choroidal neovascularization in the rat laser-induced macular degeneration model. Indomethacin was used as a positive control.
In this example, the same experiment was performed with the rat laser-induced macular degeneration model to determine whether the hPDGS inhibitor 4-Methyl-2-pyridin-2-yl-pyrimidine-5-carboxylic acid (5-fluoro-3-methyl-indol-1-yl)-amide could limit the plaque volume of choroidal neovascularization
In particular, the hPDGS inhibitor 4-Methyl-2-pyridin-2-yl-pyrimidine-5-carboxylic acid (5-fluoro-3-methyl-indol-1-yl)-amide (the compound) was administered orally to the rats twice each day on days −1 to day 14. On day 0, a laser was used to induce choroidal neovascularization in the eye of the brown Norway rats. Indomethacin was administered to a control group similarly, i.e., twice each day from day −1 to day 14.
After fourteen days, the rats were sacrificed and the plaque volume of choroidal neovascularization in the eye was measured.

Cc1nc(-c2cccc(F)c2)ncc1C(=O)Nn1ccc2ccccc21 [2-(3-Fluoro-phenyl)-4-methyl-pyrimidine-5-carboxylic acid indol-1-ylamide]
reduction of CNV plaque thickness ([1]; 10 mpk, PO): 40.7%

CC(C)(O)c1nc(-c2cccc(CNC(=O)c3cnc(-c4ccccn4)nc3)c2)no1 [2-Pyridin-2-yl-pyrimidine-5-carboxylic acid 3-[5-(1-hydroxy-1-methyl-ethyl)-1,2,4-oxadiazol-3-yl]-benzylamide]
limiting CNV volume [2]: effective

COc1nc(NCCc2ccc(Cl)cc2Cl)cc(-c2cccc(C(C)(C)C(=O)O)c2)n1.O=P(O)(O)O [2-(3-{6-[2-(2,4-Dichloro-phenyl)-ethylamino]-2-methoxy-pyrimidin-4-yl}-phenyl)-2-methyl-propionic Acid Phosphoric Acid Salt]
limiting the volume of choroidal neovascularization [3]: very effective

Cc1nc(-c2ccccn2)ncc1C(=O)Nn1cc(C)c2cc(F)ccc21 [4-Methyl-2-pyridin-2-yl-pyrimidine-5-carboxylic acid (5-fluoro-3-methyl-indol-1-yl)-amide]
limiting the plaque volume of choroidal neovascularization [4]: effective; also recorded: very effective

CCc1c(-c2ccc(C(C)(C)O)cc2)[nH]c2nccnc12 [2-[4-(7-Ethyl-5H-pyrrolo[2,3-b]pyrazin-6-yl)-phenyl]-propan-2-ol]
reduction of CNV plaque thickness ([1]; 3 mpk, PO): 11.3%
reduction of CNV plaque thickness ([1]; 10 mpk, PO): 36.6%
reduction of CNV plaque thickness ([1]; 30 mpk, PO): 32.2%

CC1(C)O[C@@H]2C[C@H]3[C@@H]4CCC5=CC(=O)C=C[C@]5(C)[C@@]4(F)[C@@H](O)C[C@]3(C)[C@]2(C(=O)CO)O1 [Triamcinolone Acetonide, reference compound]
reduction of CNV plaque thickness ([1]; positive control, intravitreal injection): 25.9%
